Reference: the supplement of paper PMC10307832

Key:
[1] = compound: CS(=O)(=O)N1CCN(Cc2cc3nc(-c4cccc5[nH]ncc45)nc(N4CCOCC4)c3s2)CC1 [Pictilisib]; assay: relative viability (nuclei count vs DMSO), 5 days (fraction); higher = more cells survive
Method in brief: (§1)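 After an overnight hold at 37 °C, lung cancer cell lines in 1536-well plates were pinned with five library-drug doses (not always all listed), each √10 from the next, on vehicle-anchored plates. The cells stayed 5 days without fresh medium, then a one-step fix, permeabilisation and Hoechst stain preceded 4× imaging and MetaXpress nuclear counts. A plate passed only with control CV under 25% and at least one doubling. Viability is the median, over plates, of treated-well nuclei relative to vehicle-well nuclei.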

[2] = compound: NC1(c2ccc(-c3nc4ccn5c(=O)[nH]nc5c4cc3-c3ccccc3)cc2)CCC1 [MK-2206]; assay: as above
Method in brief: as §1

Cell Line | relative viability ([1]; 0.02 µM) | relative viability ([1]; 0.06325 µM) | relative viability ([1]; 0.6325 µM) | relative viability ([1]; 1 µM, anchor plate) | relative viability ([1]; 2 µM) | relative viability ([2]; 0.01 µM) | relative viability ([2]; 0.03162 µM) | relative viability ([2]; 0.3162 µM) | relative viability ([2]; 1 µM)
NCI-H2023 | 1.04 | 0.831 | 0.55 | 0.262 | 0.18 | 0.972 | 0.946 | 0.757 | 0.605
COR-L 105 | 1.1 | 0.974 | 0.871 | 0.391 | 0.555 | 0.854 | 0.958 | 0.934 | 0.801
NCI-H2342 | 0.949 | 0.931 | 0.838 | – | 0.531 | 1.05 | 0.959 | 0.892 | 0.815
NCI-H838 | 1.01 | 0.902 | 0.722 | 0.455 | 0.426 | 0.98 | 1.01 | 0.918 | 0.92
SW 1573 | 0.966 | 0.958 | 0.768 | 0.487 | 0.403 | 0.997 | 1.03 | 0.773 | 0.782
